Laboratory results as given in patent US10221170B2, “Difluoropyrrolidines as orexin receptor modulators” (Eolas Therapeutics, Inc., priority 2014, dated 2019).

How the values were obtained:
OX1 = target: T1, OX1 (Homo sapiens, UniProt O43613); assay: Orexin receptor cell-based functional assay (FLIPR [Ca2+]i), OX1; conditions: CHO-OX1 cells, FLIPR calcium, EC90 of OXA
T1 construct: expressed in transfected cells; host or cells: CHO (CHO-OX1)
T1 sequence (O43613 1-425): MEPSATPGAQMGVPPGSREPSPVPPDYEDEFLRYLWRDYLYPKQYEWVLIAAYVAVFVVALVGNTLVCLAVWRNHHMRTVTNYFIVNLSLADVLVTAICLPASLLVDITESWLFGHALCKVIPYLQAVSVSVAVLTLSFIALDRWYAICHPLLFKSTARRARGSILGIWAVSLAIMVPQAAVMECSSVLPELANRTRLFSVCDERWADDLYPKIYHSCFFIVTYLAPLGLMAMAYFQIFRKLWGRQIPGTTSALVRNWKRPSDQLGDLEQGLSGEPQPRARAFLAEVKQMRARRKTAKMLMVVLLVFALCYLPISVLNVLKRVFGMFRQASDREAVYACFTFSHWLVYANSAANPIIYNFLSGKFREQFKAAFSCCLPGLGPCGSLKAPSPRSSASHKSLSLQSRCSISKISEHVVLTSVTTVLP
Method: (§1) Measurement of [Ca^2+]i using a FLIPR: CHO-OX1 or CHO-OX2 cells were seeded into black-walled clear-base 384-well plates (Corning, catalog #3712) at a density of 20,000 cells per well in F12-K medium supplemented with 10% FBS and then incubated in a 5% CO2, 37 C incubator overnight to reach 90% confluency. The cells were incubated with equal volume of calcium6 loading buffer (Molecular Devices, Inc.) containing 2.5 mM probenecid at 37° C. for 2 h, followed by test compounds (dose-range 0.1 nM-10 μM) for another 30 min. The plates were then placed into a FLIPR (Molecular Devices, Inc.) to monitor fluorescence (λ excitation 488 nm, λ emission 540 nm) before and after the addition of EC90 of [OXA].

OX2 = target: T2, OX2 (Homo sapiens, UniProt O43614); assay: Orexin receptor cell-based functional assay (FLIPR [Ca2+]i), OX2; conditions: CHO-OX2 cells, FLIPR calcium, EC90 of OXA
T2 construct: expressed in transfected cells; host or cells: CHO (CHO-OX2)
T2 sequence (O43614 1-444): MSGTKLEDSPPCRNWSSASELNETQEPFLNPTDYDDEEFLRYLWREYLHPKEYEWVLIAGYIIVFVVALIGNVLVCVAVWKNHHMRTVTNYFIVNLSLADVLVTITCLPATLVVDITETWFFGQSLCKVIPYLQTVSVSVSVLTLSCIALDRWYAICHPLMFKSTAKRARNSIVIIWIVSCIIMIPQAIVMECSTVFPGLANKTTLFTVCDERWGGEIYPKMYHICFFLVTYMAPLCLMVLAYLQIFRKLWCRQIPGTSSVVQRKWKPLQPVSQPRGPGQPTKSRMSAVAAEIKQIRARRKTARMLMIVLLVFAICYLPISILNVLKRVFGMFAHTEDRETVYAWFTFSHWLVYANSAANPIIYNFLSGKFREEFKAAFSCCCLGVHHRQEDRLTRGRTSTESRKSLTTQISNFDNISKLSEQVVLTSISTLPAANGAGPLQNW
Method: as §1

IC50 (OX1) [nM] | IC50 (OX2) [nM] | SMILES
15 | 830 | O=C(c1ccc(F)cc1-n1nccn1)N1CCC(F)(F)[C@H]1CNc1ncc(C(F)(F)F)cn1 [Example 53]
14 | > 5000 | Cc1cccc(-n2nccn2)c1C(=O)N1CCC(F)(F)[C@H]1CNc1ncc(C(F)(F)F)cn1 [Example 58]
1 | > 5000 | Cc1nc(C(=O)N2CCC(F)(F)[C@H]2CNc2ncc(C(F)(F)F)cn2)c(-c2ccc(F)cc2)s1 [Example 1]
6 | > 5000 | Cc1ccc(-n2nccn2)c(C(=O)N2CCC(F)(F)[C@H]2CNc2ncc(Cl)cn2)c1 [Example 65]
24 | 840 | O=C(c1cc(F)c(F)cc1-n1nccn1)N1CCC(F)(F)[C@H]1CNc1ncc(C(F)(F)F)cn1 [Example 51]
22 | > 5000 | O=C(c1cc(F)ccc1-n1nccn1)N1CCC(F)(F)[C@H]1CNc1ncc(Cl)cn1 [Example 64]
757 | > 5000 | O=C(c1ccc(F)c(F)c1-n1nccn1)N1CCC(F)(F)[C@H]1CNc1ncc(C(F)(F)F)cn1 [Example 59]
4 | > 5000 | Cc1ccc(-n2nccn2)c(C(=O)N2CCC(F)(F)[C@H]2CNc2ncc(C(F)(F)F)cn2)c1 [Example 2]
4 | > 5000 | O=C(c1cc(F)ccc1-n1nccn1)N1CCC(F)(F)[C@H]1CNc1ncc(C(F)(F)F)cn1 [Example 5]
105 | > 5000 | Cc1ccc(C(=O)N2CCC(F)(F)[C@H]2CNc2ncc(Cl)cn2)c(-n2nccn2)c1F [Example 68]
15 | > 5000 | Cc1c(F)ccc(C(=O)N2CCC(F)(F)[C@H]2CNc2ncc(C(F)(F)F)cn2)c1-n1nccn1 [Example 7]
230 | > 5000 | Cc1ccc(-n2nccn2)c(C(=O)N2CCC(F)(F)[C@H]2COc2ccc(C(F)(F)F)cn2)c1 [Example 25]
7 | > 5000 | Cc1cccc(C(=O)N2CCC(F)(F)[C@H]2CNc2ncc(C(F)(F)F)cn2)c1-n1nccn1 [Example 55]
11 | > 5000 | Cc1ccc(C(=O)N2CCC(F)(F)[C@H]2CNc2ncc(C(F)(F)F)cn2)c(-n2nccn2)c1F [Example 8]
1000 | > 5000 | O=C(c1ccc(F)c(F)c1-n1nccn1)N1CCC(F)(F)[C@H]1CNc1ncc(Cl)cn1 [Example 67]
3 | 720 | O=C(c1cc(F)ccc1-n1nccn1)N1CCC(F)(F)[C@H]1CNc1cnc(C(F)(F)F)cn1 [Example 77]
3 | > 5000 | O=C(c1cc(Cl)ccc1-n1nccn1)N1CCC(F)(F)[C@H]1CNc1ncc(C(F)(F)F)cn1 [Example 54]
14 | > 5000 | N#Cc1ccc(-n2nccn2)c(C(=O)N2CCC(F)(F)[C@H]2CNc2ncc(C(F)(F)F)cn2)c1 [Example 56]
3 | > 5000 | O=C(c1c(F)cccc1-n1nccn1)N1CCC(F)(F)[C@H]1CNc1ncc(C(F)(F)F)cn1 [Example 57]
16 | > 5000 | Cc1cc(C)c(-n2nccn2)c(C(=O)N2CCC(F)(F)[C@H]2CNc2ncc(C(F)(F)F)cn2)c1 [Example 60]
2 | > 5000 | O=C(c1cc(F)ccc1-c1ncccn1)N1CCC(F)(F)[C@H]1CNc1ncc(C(F)(F)F)cn1 [Example 10]
660 | > 5000 | O=C(c1cc(F)ccc1-n1nccn1)N1CCC(F)(F)[C@H]1COc1ccc(C(F)(F)F)cn1 [Example 74]
4 | > 5000 | O=C(c1cccc(F)c1-n1nccn1)N1CCC(F)(F)[C@H]1CNc1ncc(C(F)(F)F)cn1 [Example 3]
6 | > 5000 | N#Cc1ccc(-n2nccn2)c(C(=O)N2CCC(F)(F)[C@H]2CNc2ncc(Cl)cn2)c1 [Example 66]
21 | > 5000 | Cc1c(F)ccc(C(=O)N2CCC(F)(F)[C@H]2CNc2ncc(Cl)cn2)c1-n1nccn1 [Example 69]
20 | > 5000 | O=C(c1ncccc1-n1nccn1)N1CCC(F)(F)[C@H]1CNc1ncc(Cl)cn1 [Example 70]
3 | > 5000 | Cc1cccc(C(=O)N2CCC(F)(F)[C@H]2CNc2ncc(Cl)cn2)c1-n1nccn1 [Example 63]
6 | > 5000 | O=C(c1c(-n2nccn2)ccc(F)c1F)N1CCC(F)(F)[C@H]1CNc1ncc(C(F)(F)F)cn1 [Example 52]
